Experiment [1] addresses T1, Stromelysin-2 (Homo sapiens, UniProt P09238). Briefly: Inhibition of MMP-10 (unknown origin).
Experiment [2] deals with T1, Stromelysin-2. The experiment is described as follows: Inhibition of MMP10 (unknown origin) using FRET peptide.

Two compounds from ChEMBL document CHEMBL5241089, “Matrix metalloproteinases inhibitors in idiopathic pulmonary fibrosis: Medicinal chemistry perspectives” (Eur J Med Chem, 2021) can be followed below.

T1 sequence (P09238 whole entry): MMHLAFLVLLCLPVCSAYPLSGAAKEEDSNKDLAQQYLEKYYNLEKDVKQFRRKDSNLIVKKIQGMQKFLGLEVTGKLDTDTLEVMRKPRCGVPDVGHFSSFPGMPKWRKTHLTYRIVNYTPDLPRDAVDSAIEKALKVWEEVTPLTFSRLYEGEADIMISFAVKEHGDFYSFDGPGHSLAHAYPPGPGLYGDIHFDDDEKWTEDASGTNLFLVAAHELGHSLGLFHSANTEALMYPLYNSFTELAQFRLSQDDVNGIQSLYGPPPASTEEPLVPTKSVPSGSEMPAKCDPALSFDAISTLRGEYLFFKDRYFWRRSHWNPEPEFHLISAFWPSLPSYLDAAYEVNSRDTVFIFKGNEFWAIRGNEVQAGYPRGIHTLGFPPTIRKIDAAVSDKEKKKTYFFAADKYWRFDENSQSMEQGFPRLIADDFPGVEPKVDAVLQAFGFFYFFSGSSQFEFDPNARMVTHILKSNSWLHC

Turning to `CC(=O)N1c2nc(C)cc(=O)n2[C@H](c2ccc(Br)cc2)N1C(C)=O`, it took 24 nM to reach half-maximal inhibition in experiment [1] (IC50).
With `O=C(O)CCCCCCCCOc1ccc(CC(=O)Nc2ccc3c(c2)C(=O)N(Cc2ccccc2)C3=O)cc1`, the IC50 (as a rule, the midpoint of a concentration-inhibition curve) in experiment [2] was 1200 nM.
